Structures are written as SMILES. Where only a bound is given, the exact number is not on record here.

What all share (type): functional, cell-based
The test system of experiment [1] is PC-3. Put plainly: Cytotoxicity against human PC3 cells assessed as reduction in cell viability after 72 hrs by MTT assay. As to conditions: PC-3, 72 h. Background: Tetrazolium dyes change colour on reduction, which living cells bring about.
Experiment [2] in a line: Cytotoxicity against human KB/S cells assessed as reduction in cell viability after 72 hrs by MTT assay.
The test system of experiment [3] is LNCaP. Put plainly: Cytotoxicity against human LNCAP cells assessed as reduction in cell viability after 72 hrs by MTT assay.
Experiment [4] has as its system MDA-MB-231. Briefly: Cytotoxicity against human MDA-MB-231 cells assessed as reduction in cell viability after 72 hrs by MTT assay. As to conditions: MDA-MB-231, 72 h.
Experiment [5] concerns KB/VJ300. Briefly: Cytotoxicity against human KB/VJ300 cells assessed as reduction in cell viability after 72 hrs by MTT assay. The settings on record: KB/VJ300, 72 h.
In experiment [6] the test system is HCT-116. Put plainly: Cytotoxicity against human HCT116 cells assessed as reduction in cell viability after 72 hrs by MTT assay. The settings on record: HCT-116, 72 h.
In experiment [7] the test system is HT-29. Briefly: Cytotoxicity against human HT-29 cells assessed as reduction in cell viability after 72 hrs by MTT assay. As to conditions: HT-29, 72 h.
Experiment [8] deals with A549. Put plainly: Cytotoxicity against human A549 cells assessed as reduction in cell viability after 72 hrs by MTT assay. The settings on record: A549, 72 h.
Experiment [9] concerns MCF7. Put plainly: Cytotoxicity against human MCF7 cells assessed as reduction in cell viability after 72 hrs by MTT assay. The settings on record: MCF7, 72 h.

`CC[C@]12C=CCN3CC[C@]4(C(=C(C(=O)OC)C1)Nc1cc5c(cc14)[C@@H]1[C@H](O5)[C@@H](O)[C@@]4(CC)CC(C(=O)OC)=C5Nc6c(cc(O)c(OC)c6OC)[C@@]56CCN1[C@@H]46)[C@@H]32`: the IC50 (usually the concentration at which inhibition is half-maximal) in experiment [1] was 200 nM; in experiment [2] it was 1500 nM; in [3], 900 nM; in experiment [4] it was 900 nM; in [5], more than 10000 nM; in [6], 800 nM. Moreover, the values for the IC50 in [7], in experiment [8] and in experiment [9] were 1100 nM, 10000 nM and 600 nM, respectively.
Consider `CC[C@@]12CC(C(=O)OC)=C3Nc4c(cc(O)c(OC)c4OC)[C@@]34CCN([C@@H]3c5cc6c(cc5O[C@@H]3[C@H]1O)NC1=C(C(=O)OC)C[C@]35CCO[C@H]3CCN3CC[C@@]16[C@@H]35)[C@@H]24`, for which the IC50 amounted to 1100 nM in experiment [1]; 500 nM in [2]; 300 nM in experiment [3]; 800 nM in experiment [4]; 7400 nM in experiment [5]; 400 nM in experiment [6]. The IC50 is 300 nM in experiment [7], more than 10000 nM in [8] and 5900 nM in [9].
Turning to `CC[C@]1(O)C[C@H]2CN(CCc3c([nH]c4ccccc34)[C@@](C(=O)OC)(c3cc4c(cc3OC)N(C=O)[C@H]3[C@@](O)(C(=O)OC)[C@H](OC(C)=O)[C@]5(CC)C=CCN6CC[C@]43[C@@H]65)C2)C1` [VINCRISTINE], the IC50 in [2] turned out to be 2 nM; in experiment [5], 5900 nM.

Source of the values: ChEMBL document CHEMBL4041503, “A Hexacyclic, Iboga-Derived Monoterpenoid Indole with a Contracted Tetrahydroazepine C-Ring and Incorporation of an Isoxazolidine Moiety, a Seco-Corynanthean, an Aspidosperma-Aspidosperma Bisindole with Anticancer Properties, and the Absolute Configuration of the Pyridopyrimidine Indole Alkaloid, …” (J Nat Prod, 2016).
